# Source: patent publication EP1090646A2, “Labelled d-mannoheptulose derivatives and their use for imaging of the endocrine pancreas” (UNIVERSITE LIBRE DE BRUXELLES, priority 1999, dated 2001)
# Where two headings read alike, the source gives them in different places.
# What was measured:
# [1] = tested on: isolated pancreatic islets
# Experimental: (§1) Unless otherwise mentioned, the pancreatic pieces or isolated islets were submitted after incubation, to four successive washes conducted at 4°C with a medium containing 20.0 µM cytochalasin B (Sigma, St. Louis, MO, USA).
# In a further series of experiments, groups of 20 islets each were submitted, after incubation, to 6 successive washes at 4°C in the presence of cytochalasin B (20.0 µM).
# In the last set of experiments in this series, groups of 20 islets each were incubated for 60 min at 37°C in the presence of D-[^3H]mannoheptulose (0.1 mM), washed thrice at 4°C, further incubated for 60 min at 37°C in the absence of the heptose but presence of cytochalasin B (20.0 µM), again submitted to 4 successive washes, and eventually examined for their radioactive content.
# [2] = tested on: tumoral islet cells of the INS-1 line
# pieces of pancreas = test: Apparent distribution space in pieces of pancreas from control and STZ rats; details: for apparent distribution space in the presence of D-glucose relative to its absence: D-glucose 8.3 mM; for final distribution space relative to the initial incubation medium radioactive content: after the two successive incubations
# Experimental: as §1
# In the next series of experiments, the possible uptake of D-[^3H]mannoheptulose was compared to that of its hexaacetate ester in pieces of pancreas from normal rats (Figure 2).
# In the last set of experiments in this series, pieces of pancreas from either normal or STZ rats were first incubated for 60 min at 37°C in the presence of 8.3 mM D-glucose, then submitted to 3 washes at 4°C in the presence of the hexose (8.3 mM) and cytochalasin B (20.0 µM), further incubated for 60 min at 37°C, still in the presence of D-glucose and the mould metabolite, and eventually submitted to 4 washes at 4°C prior to measurement of their radioactive content.
# [3] = tested on: tumoral islet cells of the RINm5F line
# [4] = one day after intraperitoneal injection
# Experimental: Female Wistar rats (220-230 g body wt.) were injected intravenously with streptozotocin (0.25 µmol/g body wt.) on day zero. Eight to nine days later, they were transplanted with 1,500-6,000 islets prepared by the collagenase procedure (2) from rats of the same sex and strain (Iffa Credo, L'Arbresle, France). The islets were placed (1,500 islets per module) in 1-4 implantation modules (Statice Santé, Besançon, France), which were inserted, under pentobarbital anaesthesia (0.5-0.6 µmol/g body wt.; Nembutal, Sanofi, Brussels, Belgium), into the peritoneal cavity. The modules were equipped with a 20 µm thick polycarbonate membrane (Whatman, Maidstone, Kent, UK) with 6 x 10^8 pores (diameter : 50 nm) per cm^2. The glycemia of the rats was monitored in blood samples collected from the severed end of the tail.
# D-[^3H]mannoheptulose (100 µCi in 0.3 ml saline containing 0.1 mM unlabelled D-mannoheptulose) was injected intraperitoneally and the animals killed by decapitation 24 hours later after a last blood sampling from the severed end of the tail had been obtained for measurement of glycemia. The blood collected after decapitation in heparinized vials was used for measurements of radioactivity in aliquots of blood, plasma and erythrocytes, as well as for determination of plasma D-glucose and insulin concentration. Samples of the liver, gastrocnemius muscle and kidney, as well as the whole pancreas, were homogenised in 1.5 ml H2O, aliquot parts of the homogenates being used for DNA and radioactive measurements. The fluid present in the implantation device was aspirated and also examined for its radioactive content. Thereafter, the implantation device was repeatedly frozen and thawn in 0.4 ml H2O, aliquot parts of this extract being then again used for both DNA and radioactive determinations.
# The methods used to measure DNA content (3), glycemia (Glycotronic C; Macherey-Nagel, Düren, Germany), plasma D-glucose (4) and insulin (5) concentrations were previously described in the cited references.
# [5] = tested on: rat pancreatic islets or dispersed islet cells; details: 60 min incubation at 37°C
# [6] = remark: listed apart in the source
# Experimental: Two preparations of D-[^3H]mannoheptulose were used. The first preparation, used in a few in vitro experiments and in one set of in vivo experiments (animals injected 30 to 60 min before sacrifice), was a product from Nycomed Amersham (Little Chalfont, Buckinghamshire, UK). […] The second preparation used in all other experiments was a product from NEN Life Science Products (Zaventem, Belgium). […] In all experiments conducted in vivo, the animals were injected intravenously with D-[^3H]mannoheptulose (10-40 µCi, and 200 µCi in the case of the rats killed 48 hours after this injection) placed in 300 µl of saline. Except in the animals killed 30-60 min after D-[^3H]mannoheptulose injection, the inoculate also contained 0.1 mM unlabelled D-mannoheptulose.
# In the in vivo experiments, the STZ rats were either not treated with insulin (animals killed 30-60 min after D-[^3H]mannoheptulose injection) or received twice daily 6 U of insulin (Insulatard, Novo Nordisk, Bagsvaerd, Denmark) subcutaneously, the last of these injections being given at about 5 p.m. on the day before either the injection of D-[^3H]mannoheptulose (animals killed 15 min after D-[^3H]mannoheptulose administration) or the sacrifice of the rats (rats examined 48 hours after D-[^3H]mannoheptulose injection). The animals killed 15 min after the injection of D-[^3H]mannoheptulose received a total of either 5 insulin injections, the first being made at about 5 p.m. on the day after streptozotocin administration, or 6 insulin injections given between the third and fifth day after streptozotocin administration. In the rats killed 48 hours after the injection of D-[^3H]mannoheptulose, the insulin treatment was initiated at 9 a.m. 3 days after streptozotocin administration and continued for a total of 5 days.
# At stated times after D-[^3H]mannoheptulose intravenous injection, the rats were killed by decapitation, blood was collected in heparinized vials and the plasma separated for measurement of its radioactive content, as well as D-glucose^13 and insulin^14 concentrations. Samples of gastrocnemius muscle, liver, kidney and pancreas were weighed, homogenised in 1.5-3.0 ml of water, and aliquot parts of these homogenates examined for their radioactive content by liquid scintillation.
# All radioactive data were calculated as dpm/µl of plasma or dpm/mg wet wt. (muscle, liver, kidney, pancreas). In these four tissues, the results were eventually expressed as µl/mg wet wt., by dividing the radioactive content (dpm/mg) by the paired plasma value (dpm/µl).
# [7] = up to the 60th min after injection
structure (smiles),measurement,setting,value
"[3H][C@@](O)(CO)[C@@H](O)[C@H](O)[C@@H](O)C=O [D-[5-^3H]glucose, reference compound]",apparent distribution space after incubation at 4°C relative to 37°C,"[1]; 8.3 mM, 30 min, 6 washes",55.5 ± 8.3%
[3H][C@@](O)([C@H](O)CO)[C@H](O)[C@H](O)C(=O)CO [D-[^3H]mannoheptulose],apparent distribution space,"[1]; 0.1 mM, 10-120 min incubation at 37°C, only 3 washes at 4°C with cytochalasin B 20.0 µM",≥ 5.5 nl/islet
same,apparent distribution space in the presence of D-glucose relative to reference value (no D-glucose),"[1]; 0.1 mM, 30 or 120 min at 37°C, D-glucose 8.3 mM, 3 washes",161.4 ± 23.7%
same,increase of apparent distribution space between the 15th and 120th min of incubation,"[1]; 0.1 mM, 37°C, 8.3 mM D-glucose, 6 washes",73.5 ± 30.3%
same,apparent distribution space relative to that of D-[5-3H]glucose (8.3 mM),"[1]; 0.1 mM, 30 min at 37°C, absence of D-glucose, 6 washes",77.3 ± 9.4%
same,final radioactive content of islets first incubated with 8.3 mM D-glucose relative to absence of the hexose,"[1]; 0.1 mM, 60 min 37°C, washes, further 60 min with cytochalasin B 20.0 µM",168.5 ± 19.1%
same,"final radioactive content with cytochalasin B in the first incubation medium containing 8.3 mM D-glucose, relative to reference value","[1]; 0.1 mM, cytochalasin B 20.0 µM, 60 min 37°C then second 60 min incubation",103.7 ± 14.7%
same,apparent distribution space relative to the intracellular 3HOH space,[2],~9%
same,apparent distribution space in STZ rats relative to control value,"pieces of pancreas; 0.1 mM, 10 to 60 min at 37°C, 8.3 mM D-glucose, overall mean",89.2 ± 3.6%
same,apparent distribution space in the presence of cytochalasin B relative to reference value (no cytochalasin B),"pieces of pancreas; 0.1 mM, 60 min, 8.3 mM D-glucose, cytochalasin B 20.0 µM, pooled control and STZ rats",101.1 ± 4.1%
same,apparent distribution space after two successive incubations relative to that after first incubation and immediate washes,"pieces of pancreas; 0.1 mM, STZ rats",9.4 ± 0.4%
same,apparent distribution space after two successive incubations relative to that after first incubation and immediate washes,"pieces of pancreas; 0.1 mM, control rats",14.4 ± 0.4%
same,ratio between the mean values of apparent distribution space after 60/10 min incubation,"pieces of pancreas; 0.1 mM, normal rats, 37°C, 8.3 mM D-glucose",1.36 ± 0.16
same,final distribution space when the first incubation was conducted at 4°C relative to 37°C,pieces of pancreas; STZ rats,38.0 ± 3.9%
same,apparent distribution space in the presence of D-glucose relative to its absence,"pieces of pancreas; STZ rats, 0.1 mM, 60 min",83.7 ± 4.5%
same,final distribution space relative to the initial incubation medium radioactive content,pieces of pancreas; STZ rats,1.34 ± 0.11%
same,final distribution space relative to the initial incubation medium radioactive content,pieces of pancreas; control animals,1.78 ± 0.10%
same,final distribution space when the first incubation was conducted at 4°C relative to 37°C,pieces of pancreas; control rats,36.9 ± 4.2%
same,apparent distribution space in the presence of D-glucose relative to its absence,"pieces of pancreas; control rats, 0.1 mM, 60 min",106.7 ± 6.5%
same,apparent distribution space relative to the intracellular 3HOH space,[3],about 3%
same,calculated radioactive content of the transplanted islets (dpm/mg wet wt.) relative to paired plasma radioactive content (dpm/µl),[4],6.49 ± 1.27
same,paired islet/pancreas ratio,[4],11.59 ± 0.03
same,radioactive content calculated for the transplanted islets,[4],332.7 ± 30.7 dpm/mg wet weight
same,radioactive content of the kidney,[4],51.0 ± 0.9 dpm/mg wet weight
same,radioactive content of the liver,[4],64.5 ± 6.4 dpm/mg wet weight
same,radioactive content of the muscle,[4],28.9 ± 7.8 dpm/mg wet weight
same,radioactive content of the pancreas,[4],28.7 ± 2.6 dpm/mg wet weight
same,"volume of distribution, as judged from the plasma radioactive content",[4]; STZ diabetic rats with transplanted islets,10.0 ± 2.2 ml/g body weight
same,apparent intracellular distribution space relative to the intracellular 3HOH space,[5],~50%
same,radioactive content of the transplanted islets relative to that found in the pancreas,60 min after the intravenous injection,about 10 times
same,radioactive content in the liver and transplanted islets relative to the pancreatic gland,one hour after intravenous injection,5-8 times
same,"radioactive content of the pancreatic gland relative to paired plasma value, STZ rats as % of mean control value","[6]; 15-2880 min after intravenous injection, all available data pooled",81.6 ± 4.2%
same,"liver/plasma radioactive ratio, STZ rats as % of normal rats","[6]; STZ animals not treated with insulin, tracer amount only, no unlabelled heptose",56.1 ± 3.3%
same,"paired ratio liver/plasma radioactivity, STZ rats as % of control rats",[6]; insulin-treated STZ rats (n = 11),109.5 ± 8.3%
same,"kidney radioactive content relative to paired plasma value, STZ rats as % of normal rats","[6]; rat, in vivo",68.1 ± 6.5%
same,"paired ratio muscle/plasma radioactivity, STZ rats as % of control rats","[6]; rat, in vivo",87.7 ± 6.2%
same,"radioactive content of the pancreatic gland relative to paired plasma value, STZ rats as % of mean control value",[6]; results at 15 min not taken into account,77.9 ± 5.6%
same,muscle/liver ratio,[6]; [7],≤ 17.00 ± 1.17%
same,paired pancreas/muscle ratio,[6]; [7],125.71 ± 7.83%
same,pancreas/liver ratio,[6]; [7],21.26 ± 1.07%
"[3H]O[3H] [^3HOH, reference compound]",apparent distribution space after two successive incubations relative to that after first incubation and immediate washes,"pieces of pancreas; normal or STZ rats pooled (n = 16), second 60 min incubation with D-glucose and cytochalasin B",no more than 1.8 ± 0.4%
